Results on 2 compounds are retold here after PMC9238401, “Peptide Conjugates Derived from flg15, Pep13, and PIP1 That Are Active against Plant-Pathogenic Bacteria and Trigger Plant Defense Responses” (Applied and Environmental Microbiology, 2022).

A short description of this data set: HPLC retention time as indicator of relative hydrophobicity. The data set is classed as physicochemical. Conditions: chromatographic, Kromasil 100 C18 (4.6 mm × 40 mm, 3 μm), linear gradient 2 to 100% B over 12 min, 1 mL/min; A 0.1% aqueous TFA, B 0.1% TFA in CH3CN; used as indicator of relative hydrophobicity. A digest of the protocol: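 Reversed-phase HPLC on Kromasil 100 C18 (4.6 × 40 mm, 3 μm), 0.1% TFA in water/acetonitrile, linear 2–100% B at 1 mL/min over 7 min (method A, UV 220 nm) or 12 min (method B). Retention time serves as relative hydrophobicity.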

Non-standard residues stand in square brackets, D forms with d. Residues, ends and D or L forms follow the SMILES beside them. *: point of attachment. Butyryl = CCCC(=O)*

`CCCC(=O)NCCCC[C@H](NC(=O)[C@H](CCCCN)NC(=O)[C@H](CC(C)C)NC(=O)[C@@H](NC(=O)[C@H](CCCCN)NC(=O)[C@H](CCCCN)NC(=O)[C@@H](Cc1ccccc1)NC(=O)[C@H](CC(C)C)NC(=O)[C@H](CCCCN)NC(=O)[C@H](CCCCN)NC(=O)[C@H](Cc1c[nH]cn1)NC(=O)[C@@H](NC(=O)[C@H](Cc1c[nH]cn1)NC(=O)[C@@H](NC(=O)CNC(=O)[C@H](Cc1ccc(O)cc1)NC(C)=O)[C@@H](C)CC)[C@@H](C)O)[C@@H](C)CC)C(=O)N[C@@H](CC(C)C)C(N)=O` [PIP1-BP475] (Ac-YGIHTHKKL[dF]KKILKK(Butyryl)L-NH2): the “tR (min), HPLC retention time (method B)” value was 5.55 min.

As for `CCCC(=O)NCCCC[C@H](NC(=O)[C@H](CCCCN)NC(=O)[C@H](CC(C)C)NC(=O)[C@@H](NC(=O)[C@H](CCCCN)NC(=O)[C@H](CCCCN)NC(=O)[C@@H](Cc1ccccc1)NC(=O)[C@H](CC(C)C)NC(=O)[C@H](CCCCN)NC(=O)[C@H](CCCCN)NC(=O)[C@H](C)NC(=O)[C@@H](NC(=O)[C@H](CCC(N)=O)NC(=O)[C@H](CC(C)C)NC(=O)CNC(=O)[C@H](C)NC(=O)[C@H](C)NC(=O)[C@H](CC(=O)O)NC(=O)[C@H](CC(=O)O)NC(=O)[C@H](CCCCN)NC(=O)[C@H](C)NC(=O)[C@H](CO)NC(=O)[C@H](CC(N)=O)NC(=O)[C@@H](NC(=O)[C@H](CCCNC(=N)N)NC(C)=O)[C@@H](C)CC)[C@@H](C)CC)[C@@H](C)CC)C(=O)N[C@@H](CC(C)C)C(N)=O` [flg15-BP475] (Ac-RINSAKDDAAGLQIAKKL[dF]KKILKK(Butyryl)L-NH2), the “tR (min), HPLC retention time (method B)” value came to 6.79 min.
